Where “and” joins values, the source holds several entries; their conditions need not be identical. Equal values may be shown once. Read-outs that look alike come from different tables or passages of the source.
Legend:
[1] = biological target: Human CYP2C19 + P450 Reductase + Cytochrome b5 SUPERSOMES (Homo sapiens, UniProt P33261)
Procedure: (§1) In this study, individual CYP isoforms expressed from human cDNA and P450 reductase cDNA were used (BD SUPERSOMES™ Enzymes, BD Biosciences Discovery Labware, Woburn, Mass.). SUPERSOMES™ are microsomes from baculovirus-infected insect cells containing singly expressed recombinant human CYP enzymes.
(§2) After a 5-minute preincubation, an appropriate amount of the appropriate buffer was added to the reaction mixtures to make the final volume of 0.5 mL. The incubations were continued for 60 minutes.
(§3) All incubation reactions were terminated by adding 0.5 mL methanol, and the samples were transferred to cryovials and stored at −70±10° C. until analysis.

[2] = biological target: T1, Human CYP2C8 + P450 Reductase + Cytochrome b5 SUPERSOMES (Homo sapiens, UniProt P10632)
T1 sequence (P10632 1-490): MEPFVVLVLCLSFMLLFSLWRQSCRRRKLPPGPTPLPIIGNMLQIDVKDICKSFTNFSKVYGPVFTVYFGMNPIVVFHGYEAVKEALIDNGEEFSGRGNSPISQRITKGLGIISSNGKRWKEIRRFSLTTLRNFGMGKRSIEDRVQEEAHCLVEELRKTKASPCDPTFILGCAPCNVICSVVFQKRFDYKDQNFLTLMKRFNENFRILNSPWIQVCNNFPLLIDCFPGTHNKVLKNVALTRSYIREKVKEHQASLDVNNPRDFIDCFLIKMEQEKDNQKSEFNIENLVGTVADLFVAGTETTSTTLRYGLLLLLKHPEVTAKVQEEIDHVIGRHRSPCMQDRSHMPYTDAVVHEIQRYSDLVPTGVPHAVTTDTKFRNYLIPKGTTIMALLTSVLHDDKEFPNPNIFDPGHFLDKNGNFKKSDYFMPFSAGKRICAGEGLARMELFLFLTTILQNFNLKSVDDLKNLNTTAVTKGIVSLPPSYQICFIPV
Procedure: as §1, §2, §3

[3] = biological target: Human CYP2C9*1 (Arg144) + P450 Reductase + Cytochrome b5 SUPERSOMES (Homo sapiens, UniProt P11712)
Procedure: as §1, §2, §3

CYP1A2 [4] = biological target: T2, CYP1A2 (Homo sapiens, UniProt P05177); format: in vitro ADME; details: 50 μM megestrol acetate, microsomes
T2 sequence (P05177 1-516): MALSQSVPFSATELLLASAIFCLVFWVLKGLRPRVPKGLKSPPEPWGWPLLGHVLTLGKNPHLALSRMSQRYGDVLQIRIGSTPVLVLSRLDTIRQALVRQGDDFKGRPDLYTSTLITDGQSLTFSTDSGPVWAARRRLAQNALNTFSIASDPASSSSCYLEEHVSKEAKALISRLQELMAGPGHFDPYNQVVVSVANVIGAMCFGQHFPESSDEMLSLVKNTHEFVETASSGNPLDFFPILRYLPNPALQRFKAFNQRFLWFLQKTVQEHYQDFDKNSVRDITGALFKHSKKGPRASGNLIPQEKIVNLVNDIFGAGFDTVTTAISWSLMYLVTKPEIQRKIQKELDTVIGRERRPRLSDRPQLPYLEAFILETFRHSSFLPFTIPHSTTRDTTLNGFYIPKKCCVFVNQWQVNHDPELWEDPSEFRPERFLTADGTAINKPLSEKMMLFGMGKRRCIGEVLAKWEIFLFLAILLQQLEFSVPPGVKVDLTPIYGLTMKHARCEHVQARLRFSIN

CYP2E1 = format: in vitro ADME; details: 50 μM megestrol acetate, microsomes, diethyldithiocarbamate
CYP2C9 = CYP2C9 (Homo sapiens, UniProt P11712)
Sequence of CYP2C9 (P11712 whole entry): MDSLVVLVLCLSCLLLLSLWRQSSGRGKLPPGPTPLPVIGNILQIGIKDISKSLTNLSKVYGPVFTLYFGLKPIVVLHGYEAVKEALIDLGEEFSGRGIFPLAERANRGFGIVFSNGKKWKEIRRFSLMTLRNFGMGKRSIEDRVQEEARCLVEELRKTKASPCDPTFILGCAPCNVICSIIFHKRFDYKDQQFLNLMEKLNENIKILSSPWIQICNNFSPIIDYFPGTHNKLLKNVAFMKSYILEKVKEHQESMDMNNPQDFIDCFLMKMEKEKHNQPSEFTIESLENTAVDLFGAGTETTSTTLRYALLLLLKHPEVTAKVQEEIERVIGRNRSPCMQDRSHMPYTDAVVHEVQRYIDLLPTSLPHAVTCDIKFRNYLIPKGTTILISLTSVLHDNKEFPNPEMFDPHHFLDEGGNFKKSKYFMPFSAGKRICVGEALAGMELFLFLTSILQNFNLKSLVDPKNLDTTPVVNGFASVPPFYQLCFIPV
Procedure: (§4) The stock solutions were added to incubation mixtures to obtain the final concentrations of 5 and 50 μM, each containing 1% acetonitrile.
(§5) Microsomes were prepared by differential centrifugation of liver homogenates pooled from at least ten human donors.
(§6) After a 5 minute preincubation, nicotinamide adenine dinucleotide phosphate (NADPH) regenerating system (NRS; 1.7 mg/mL β-NADP, 7.8 mg/mL glucose-6-phosphate, and 6 units/mL glucose-6-phosphate dehydrogenase in 2% sodium bicarbonate solution) was added to initiate the reaction. The final incubation volume was 0.5 mL. Incubations were continued for 60 minutes.
(§7) All incubations were conducted at 37±1° C. in a shaking water bath. All incubations were carried out in triplicates.
(§8) After a 5-minute preincubation, 2% sodium bicarbonate solution was added to the incubation mixtures. The final incubation volume was 0.5 mL. Incubations were continued for 60 minutes.
(§9) Incubation reactions, including the matrix controls and metabolic negative controls, were terminated by adding 0.5 mL methanol.
(§10) The samples were analyzed on a Supelcosil LC-18 column (3μ, 120 Å, 3.0×100 mm).

CYP2C19 = CYP2C19 (Homo sapiens, UniProt P33261)
Sequence of CYP2C19 (P33261 whole entry): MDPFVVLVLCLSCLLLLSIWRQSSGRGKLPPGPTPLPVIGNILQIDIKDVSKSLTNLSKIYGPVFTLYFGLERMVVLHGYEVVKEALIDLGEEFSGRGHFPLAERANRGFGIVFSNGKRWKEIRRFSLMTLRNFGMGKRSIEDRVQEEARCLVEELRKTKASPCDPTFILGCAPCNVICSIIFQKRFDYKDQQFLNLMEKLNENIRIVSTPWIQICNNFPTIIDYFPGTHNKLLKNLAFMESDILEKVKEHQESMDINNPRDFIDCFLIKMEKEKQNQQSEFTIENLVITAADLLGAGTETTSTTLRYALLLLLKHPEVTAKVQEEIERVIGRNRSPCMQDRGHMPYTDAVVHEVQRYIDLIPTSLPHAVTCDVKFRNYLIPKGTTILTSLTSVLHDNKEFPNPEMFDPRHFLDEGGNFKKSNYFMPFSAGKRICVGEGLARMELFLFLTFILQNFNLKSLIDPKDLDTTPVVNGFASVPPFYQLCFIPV
Procedure: as §4, §5, §6, §7, §8, §9, §10

CYP1A2 [5] = biological target: T2, CYP1A2; format: in vitro ADME; parameters: purchased BD Biosciences Discovery Labware, Woburn, Mass; host or cells: baculovirus-infected insect cells; details: 50 μM megestrol acetate, 20 pmol CYP1A2
[6] = 5 μM, 5 pmol enzyme, listed as megestrol acetate
[7] = 5 μM, 20 pmol enzyme, listed as megestrol acetate
[8] = 50 μM, 5 pmol enzyme, listed as megestrol acetate
[9] = 50 μM, 20 pmol enzyme, listed as megestrol acetate
[10] = human, microsomes, 60 min, pH 7.4

Sequence of Human CYP2C19 + P450 Reductase + Cytochrome b5 SUPERSOMES (P33261 whole entry, canonical isoform): as the sequence (P33261 whole entry) above

CC(=O)O[C@]1(C(C)=O)CC[C@H]2[C@@H]3C=C(C)C4=CC(=O)CC[C@]4(C)[C@H]3CC[C@@]21C [Megestrol Acetate, 17 α-acetyloxy-6-methylpregna-4,6-diene-3,20-dione]
Individual Raw Data Observed ([1]; 5 μM, 5 pmol enzyme): 2.139 µM and 2.028 µM and 1.969 µM
Percent of Parent Disappearance Individual ([1]; 5 μM, 5 pmol enzyme): −8.12% and −2.56% and 0.430%
Percent of Parent Disappearance Mean ± SD ([1]; 5 μM, 5 pmol enzyme): −3.42 ± 4.34%
Percent of Parent Disappearance Mean ± SD [1, 6]: 3.42±4.34%
Individual Raw Data Observed ([1]; 5 μM, 20 pmol enzyme): 2.14 µM and 2.225 µM and 2.128 µM
Percent of Parent Disappearance Individual ([1]; 5 μM, 20 pmol enzyme): 2.70% and −1.16% and 3.25%
Percent of Parent Disappearance Mean ± SD ([1]; 5 μM, 20 pmol enzyme): 1.60 ± 2.40%
Percent of Parent Disappearance Mean ± SD [1, 7]: 1.60±2.40%
Individual Raw Data Observed ([1]; 50 μM, 5 pmol enzyme): 21.34 µM and 20.03 µM and 19.86 µM
Percent of Parent Disappearance Individual ([1]; 50 μM, 5 pmol enzyme): −9.66% and −2.96% and −2.05%
Percent of Parent Disappearance Mean ± SD ([1]; 50 μM, 5 pmol enzyme): −4.89 ± 4.16%
Percent of Parent Disappearance Mean ± SD [1, 8]: 4.89±4.16%
Individual Raw Data Observed ([1]; 50 μM, 20 pmol enzyme): 15.71 µM and 16.25 µM and 16.51 µM
Percent of Parent Disappearance Individual ([1]; 50 μM, 20 pmol enzyme): −0.956% and −4.44% and −6.11%
Percent of Parent Disappearance Mean ± SD ([1]; 50 μM, 20 pmol enzyme): −3.84 ± 2.63%
Percent of Parent Disappearance Mean ± SD [1, 9]: 3.84±2.63%
Individual Raw Data Observed ([2]; 5 μM, 5 pmol enzyme): 2.202 µM and 3.025 µM and 2.609 µM
Percent of Parent Disappearance Mean ± SD ([2]; 5 μM, 5 pmol enzyme): −18.0 ± 18.6%
Percent of Parent Disappearance Mean ± SD [2, 6]: no disappearance of megestrol acetate was detected
Individual Raw Data Observed ([2]; 5 μM, 20 pmol enzyme): 1.94 µM and 1.985 µM and 2.045 µM
Percent of Parent Disappearance Individual ([2]; 5 μM, 20 pmol enzyme): 2.05% and −0.201% and −3.26%
Percent of Parent Disappearance Mean ± SD ([2]; 5 μM, 20 pmol enzyme): −0.468 ± 2.66%
Percent of Parent Disappearance Mean ± SD [2, 7]: no disappearance of megestrol acetate was detected
Individual Raw Data Observed ([2]; 50 μM, 5 pmol enzyme): 21.4 µM and 22.9 µM and 22.7 µM
Percent of Parent Disappearance Individual ([2]; 50 μM, 5 pmol enzyme): 1.01% and −5.95% and −5.01%
Percent of Parent Disappearance Mean ± SD ([2]; 50 μM, 5 pmol enzyme): −3.32 ± 3.78%
Percent of Parent Disappearance Mean ± SD [2, 8]: no disappearance of megestrol acetate was detected
Individual Raw Data Observed ([2]; 50 μM, 20 pmol enzyme): 19.69 µM and 20.64 µM and 20.58 µM
Percent of Parent Disappearance Individual ([2]; 50 μM, 20 pmol enzyme): −0.513% and −5.33% and −5.02%
Percent of Parent Disappearance Mean ± SD ([2]; 50 μM, 20 pmol enzyme): −3.62 ± 2.70%
Percent of Parent Disappearance Mean ± SD [2, 9]: no disappearance of megestrol acetate was detected
Individual Raw Data Observed ([3]; 5 μM, 5 pmol enzyme): 2.098 µM and 2.127 µM and 2.133 µM
Percent of Parent Disappearance Individual ([3]; 5 μM, 5 pmol enzyme): 3.68% and 2.33% and 2.08%
Percent of Parent Disappearance Mean ± SD ([3]; 5 μM, 5 pmol enzyme): 2.70 ± 0.860%
Percent of Parent Disappearance Mean ± SD [3, 6]: 2.70±0.860%
Individual Raw Data Observed ([3]; 5 μM, 20 pmol enzyme): 2.314 µM and 2.379 µM and 2.134 µM
Percent of Parent Disappearance Individual ([3]; 5 μM, 20 pmol enzyme): 9.53% and 6.99% and 16.6%
Percent of Parent Disappearance Mean ± SD ([3]; 5 μM, 20 pmol enzyme): 11.0 ± 4.96%
Percent of Parent Disappearance Mean ± SD [3, 7]: 11.0±4.96%
Individual Raw Data Observed ([3]; 50 μM, 5 pmol enzyme): 20.38 µM and 20.18 µM and 20.9 µM
Percent of Parent Disappearance Individual ([3]; 50 μM, 5 pmol enzyme): 21.5% and 22.2% and 19.5%
Percent of Parent Disappearance Mean ± SD ([3]; 50 μM, 5 pmol enzyme): 21.0 ± 1.43%
Percent of Parent Disappearance Mean ± SD [3, 8]: 21.0±1.43%
Individual Raw Data Observed ([3]; 50 μM, 20 pmol enzyme): 24.33 µM and 21.36 µM and 25.28 µM
Percent of Parent Disappearance Individual ([3]; 50 μM, 20 pmol enzyme): −1.60% and 10.8% and −5.60%
Percent of Parent Disappearance Mean ± SD ([3]; 50 μM, 20 pmol enzyme): 1.19 ± 8.54%
Percent of Parent Disappearance Mean ± SD [3, 9]: 1.19±8.54%
difference in metabolism in the presence or absence of the inhibitor (LC/MS) (CYP1A2 [4]): no significant difference in metabolism
difference in metabolism in the presence or absence of the inhibitor (LC/MS) (CYP2E1): a significant difference in metabolism
percent metabolized in presence vs absence of inhibitor (unpaired two-tailed t-test) (CYP2C9): not different from the percentage of megestrol acetate metabolized in the absence of the inhibitor
metabolized in pooled human liver microsomes (CYP2C9; [10]): > 20%
percent metabolized in presence vs absence of inhibitor (unpaired two-tailed t-test) (CYP2C19): not different from the percentage of megestrol acetate metabolized in the absence of the inhibitor
metabolized in pooled human liver microsomes (CYP2C19; [10]): > 20%
metabolism based on analysis of metabolites formed (CYP1A2 [5]): < 1%
